Data published in the NIST ThermoML archive (doi:10.1021/je4007844).

Conditions: Liquid; for viscosity: Concentric cylinders viscometry

CCCCCCn1cc[n+](C)c1.[Cl-] [1-hexyl-3-methylimidazolium chloride]
101.33 kPa, Vibrating tube method
Conditions | mass density [kg/m3]
303.15 K | 1035.1
313.15 K | 1029.5
323.15 K | 1023.9
333.15 K | 1018.4
343.15 K | 1012.8
353.15 K | 1007.4
363.15 K | 1002.1
373.15 K | 997.1

101.33 kPa
Conditions | viscosity [mPa·s]
323.15 K | 1806
333.15 K | 810.3
343.15 K | 404.3
353.15 K | 220.6
363.15 K | 129.7
373.15 K | 81.34

CCCCCC[n+]1ccn(C)c1.O=S(=O)([N-]S(=O)(=O)C(F)(F)F)C(F)(F)F
101.33 kPa
Conditions | viscosity [mPa·s]
293.15 K | 90.06
303.15 K | 56.25
313.15 K | 37.44
323.15 K | 26.25
333.15 K | 19.21
343.15 K | 14.55
353.15 K | 11.36
363.15 K | 9.091
373.15 K | 7.434

Conditions | mass density [kg/m3]
293.15 K, 101.33 kPa, Vibrating tube method | 1376.3
303.15 K, 101.33 kPa, Vibrating tube method | 1367.1
312.6 K, 100 kPa, Bellows volumetry | 1358.5
312.6 K, 10000 kPa, Bellows volumetry | 1365.7
312.6 K, 20000 kPa, Bellows volumetry | 1373
312.6 K, 30000 kPa, Bellows volumetry | 1380.1
312.6 K, 40000 kPa, Bellows volumetry | 1386.7
312.6 K, 50000 kPa, Bellows volumetry | 1392.8
312.6 K, 60000 kPa, Bellows volumetry | 1399
312.6 K, 70000 kPa, Bellows volumetry | 1404.6
312.6 K, 80000 kPa, Bellows volumetry | 1410.2
312.6 K, 90000 kPa, Bellows volumetry | 1415.5
312.6 K, 100000 kPa, Bellows volumetry | 1420.7
312.6 K, 110000 kPa, Bellows volumetry | 1425.8
312.6 K, 120000 kPa, Bellows volumetry | 1430.8
312.6 K, 130000 kPa, Bellows volumetry | 1435.5
312.6 K, 140000 kPa, Bellows volumetry | 1440.1
312.6 K, 150000 kPa, Bellows volumetry | 1444.5
312.6 K, 160000 kPa, Bellows volumetry | 1448.9
312.6 K, 170000 kPa, Bellows volumetry | 1453
312.6 K, 180000 kPa, Bellows volumetry | 1457.6
312.6 K, 190000 kPa, Bellows volumetry | 1461.6
312.6 K, 200000 kPa, Bellows volumetry | 1465.9
313.15 K, 101.33 kPa, Vibrating tube method | 1358
323.15 K, 101.33 kPa, Vibrating tube method | 1348.9
332.4 K, 100 kPa, Bellows volumetry | 1340
332.4 K, 10000 kPa, Bellows volumetry | 1348.1
332.4 K, 20000 kPa, Bellows volumetry | 1355.9
332.4 K, 30000 kPa, Bellows volumetry | 1363.3
332.4 K, 40000 kPa, Bellows volumetry | 1370.4
332.4 K, 50000 kPa, Bellows volumetry | 1377
332.4 K, 60000 kPa, Bellows volumetry | 1383.2
332.4 K, 70000 kPa, Bellows volumetry | 1389.3
332.4 K, 80000 kPa, Bellows volumetry | 1395.1
332.4 K, 90000 kPa, Bellows volumetry | 1400.5
332.4 K, 100000 kPa, Bellows volumetry | 1406.3
332.4 K, 110000 kPa, Bellows volumetry | 1411.5
332.4 K, 120000 kPa, Bellows volumetry | 1416.5
332.4 K, 130000 kPa, Bellows volumetry | 1421.3
332.4 K, 140000 kPa, Bellows volumetry | 1426.1
332.4 K, 150000 kPa, Bellows volumetry | 1430.9
332.4 K, 160000 kPa, Bellows volumetry | 1435.4
332.4 K, 170000 kPa, Bellows volumetry | 1439.7
332.4 K, 180000 kPa, Bellows volumetry | 1444
332.4 K, 190000 kPa, Bellows volumetry | 1448.4
332.4 K, 200000 kPa, Bellows volumetry | 1452.6
333.15 K, 101.33 kPa, Vibrating tube method | 1339.9
343.15 K, 101.33 kPa, Vibrating tube method | 1331
352.3 K, 100 kPa, Bellows volumetry | 1322.2
352.3 K, 10000 kPa, Bellows volumetry | 1330.9
352.3 K, 20000 kPa, Bellows volumetry | 1339.3
352.3 K, 30000 kPa, Bellows volumetry | 1347.3
352.3 K, 40000 kPa, Bellows volumetry | 1354.5
352.3 K, 50000 kPa, Bellows volumetry | 1361.5
352.3 K, 60000 kPa, Bellows volumetry | 1368.2
352.3 K, 70000 kPa, Bellows volumetry | 1374.6
352.3 K, 80000 kPa, Bellows volumetry | 1380.6
352.3 K, 90000 kPa, Bellows volumetry | 1386.5
352.3 K, 100000 kPa, Bellows volumetry | 1392
352.3 K, 110000 kPa, Bellows volumetry | 1397.5
352.3 K, 120000 kPa, Bellows volumetry | 1402.7
352.3 K, 130000 kPa, Bellows volumetry | 1408
352.3 K, 140000 kPa, Bellows volumetry | 1412.8
352.3 K, 150000 kPa, Bellows volumetry | 1417.6
352.3 K, 160000 kPa, Bellows volumetry | 1422.1
352.3 K, 170000 kPa, Bellows volumetry | 1426.8
352.3 K, 180000 kPa, Bellows volumetry | 1431.4
352.3 K, 190000 kPa, Bellows volumetry | 1435.5
352.3 K, 200000 kPa, Bellows volumetry | 1439.9
353.15 K, 101.33 kPa, Vibrating tube method | 1322.2
363.15 K, 101.33 kPa, Vibrating tube method | 1313.3
372.5 K, 100 kPa, Bellows volumetry | 1304.4
372.5 K, 10000 kPa, Bellows volumetry | 1313.7
372.5 K, 20000 kPa, Bellows volumetry | 1322.6
372.5 K, 30000 kPa, Bellows volumetry | 1330.9
372.5 K, 40000 kPa, Bellows volumetry | 1338.6
372.5 K, 50000 kPa, Bellows volumetry | 1346
372.5 K, 60000 kPa, Bellows volumetry | 1353
372.5 K, 70000 kPa, Bellows volumetry | 1359.6
372.5 K, 80000 kPa, Bellows volumetry | 1366
372.5 K, 90000 kPa, Bellows volumetry | 1372.1
372.5 K, 100000 kPa, Bellows volumetry | 1378
372.5 K, 110000 kPa, Bellows volumetry | 1383.7
372.5 K, 120000 kPa, Bellows volumetry | 1389.1
372.5 K, 130000 kPa, Bellows volumetry | 1394.3
372.5 K, 140000 kPa, Bellows volumetry | 1399.4
372.5 K, 150000 kPa, Bellows volumetry | 1404.4
372.5 K, 160000 kPa, Bellows volumetry | 1409.3
372.5 K, 170000 kPa, Bellows volumetry | 1414
372.5 K, 180000 kPa, Bellows volumetry | 1418.5
372.5 K, 190000 kPa, Bellows volumetry | 1423.1
372.5 K, 200000 kPa, Bellows volumetry | 1427.4
373.15 K, 101.33 kPa, Vibrating tube method | 1304.7
392.7 K, 100 kPa, Bellows volumetry | 1286.8
392.7 K, 10000 kPa, Bellows volumetry | 1296.8
392.7 K, 20000 kPa, Bellows volumetry | 1306.3
392.7 K, 30000 kPa, Bellows volumetry | 1315.1
392.7 K, 40000 kPa, Bellows volumetry | 1323.4
392.7 K, 50000 kPa, Bellows volumetry | 1331.1
392.7 K, 60000 kPa, Bellows volumetry | 1338.5
392.7 K, 70000 kPa, Bellows volumetry | 1345.4
392.7 K, 80000 kPa, Bellows volumetry | 1352.1
392.7 K, 90000 kPa, Bellows volumetry | 1358.3
392.7 K, 100000 kPa, Bellows volumetry | 1364.5
392.7 K, 110000 kPa, Bellows volumetry | 1370.3
392.7 K, 120000 kPa, Bellows volumetry | 1376
392.7 K, 130000 kPa, Bellows volumetry | 1381.5
392.7 K, 140000 kPa, Bellows volumetry | 1386.8
392.7 K, 150000 kPa, Bellows volumetry | 1391.9
392.7 K, 160000 kPa, Bellows volumetry | 1397
392.7 K, 170000 kPa, Bellows volumetry | 1401.8
392.7 K, 180000 kPa, Bellows volumetry | 1406.5
392.7 K, 190000 kPa, Bellows volumetry | 1411.1
392.7 K, 200000 kPa, Bellows volumetry | 1415.7
412.7 K, 100 kPa, Bellows volumetry | 1269.8
412.7 K, 10000 kPa, Bellows volumetry | 1280.4
412.7 K, 20000 kPa, Bellows volumetry | 1290.4
412.7 K, 30000 kPa, Bellows volumetry | 1299.8
412.7 K, 40000 kPa, Bellows volumetry | 1308.4
412.7 K, 50000 kPa, Bellows volumetry | 1316.5
412.7 K, 60000 kPa, Bellows volumetry | 1324.3
412.7 K, 70000 kPa, Bellows volumetry | 1331.5
412.7 K, 80000 kPa, Bellows volumetry | 1338.5
412.7 K, 90000 kPa, Bellows volumetry | 1345
412.7 K, 100000 kPa, Bellows volumetry | 1351.3
412.7 K, 110000 kPa, Bellows volumetry | 1357.5
412.7 K, 120000 kPa, Bellows volumetry | 1363.2
412.7 K, 130000 kPa, Bellows volumetry | 1368.9
412.7 K, 140000 kPa, Bellows volumetry | 1374.3
412.7 K, 150000 kPa, Bellows volumetry | 1379.8
412.7 K, 160000 kPa, Bellows volumetry | 1384.9
412.7 K, 170000 kPa, Bellows volumetry | 1389.9
412.7 K, 180000 kPa, Bellows volumetry | 1394.7
412.7 K, 190000 kPa, Bellows volumetry | 1399.4
412.7 K, 200000 kPa, Bellows volumetry | 1404
432.6 K, 100 kPa, Bellows volumetry | 1252.4
432.6 K, 10000 kPa, Bellows volumetry | 1263.7
432.6 K, 20000 kPa, Bellows volumetry | 1274.3
432.6 K, 30000 kPa, Bellows volumetry | 1284.2
432.6 K, 40000 kPa, Bellows volumetry | 1293.3
432.6 K, 50000 kPa, Bellows volumetry | 1301.7
432.6 K, 60000 kPa, Bellows volumetry | 1309.7
432.6 K, 70000 kPa, Bellows volumetry | 1317.3
432.6 K, 80000 kPa, Bellows volumetry | 1324.5
432.6 K, 90000 kPa, Bellows volumetry | 1331.2
432.6 K, 100000 kPa, Bellows volumetry | 1337.8
432.6 K, 110000 kPa, Bellows volumetry | 1344.1
432.6 K, 120000 kPa, Bellows volumetry | 1350.3
432.6 K, 130000 kPa, Bellows volumetry | 1356.1
432.6 K, 140000 kPa, Bellows volumetry | 1361.9
432.6 K, 150000 kPa, Bellows volumetry | 1367.3
432.6 K, 160000 kPa, Bellows volumetry | 1372.4
432.6 K, 170000 kPa, Bellows volumetry | 1377.5
432.6 K, 180000 kPa, Bellows volumetry | 1382.5
432.6 K, 190000 kPa, Bellows volumetry | 1387.4
432.6 K, 200000 kPa, Bellows volumetry | 1392.2
452.3 K, 100 kPa, Bellows volumetry | 1235.6
452.3 K, 10000 kPa, Bellows volumetry | 1247.6
452.3 K, 20000 kPa, Bellows volumetry | 1258.8
452.3 K, 30000 kPa, Bellows volumetry | 1269.2
452.3 K, 40000 kPa, Bellows volumetry | 1278.8
452.3 K, 50000 kPa, Bellows volumetry | 1287.6
452.3 K, 60000 kPa, Bellows volumetry | 1295.9
452.3 K, 70000 kPa, Bellows volumetry | 1303.9
452.3 K, 80000 kPa, Bellows volumetry | 1311.3
452.3 K, 90000 kPa, Bellows volumetry | 1318.3
452.3 K, 100000 kPa, Bellows volumetry | 1325.1
452.3 K, 110000 kPa, Bellows volumetry | 1331.8
452.3 K, 120000 kPa, Bellows volumetry | 1338
452.3 K, 130000 kPa, Bellows volumetry | 1344.1
452.3 K, 140000 kPa, Bellows volumetry | 1349.9
452.3 K, 150000 kPa, Bellows volumetry | 1355.5
452.3 K, 160000 kPa, Bellows volumetry | 1360.8
452.3 K, 170000 kPa, Bellows volumetry | 1366.2
452.3 K, 180000 kPa, Bellows volumetry | 1371.3
452.3 K, 190000 kPa, Bellows volumetry | 1376.4
452.3 K, 200000 kPa, Bellows volumetry | 1381.2
